Measurements taken from US10034915B2, “Small heat shock proteins and active fragments thereof as a therapy for inflammation and ischemia” (The Board of Trustees of the Leland Stanford Junior …, priority 2011, dated 2018).
Entries after “also recorded” stand apart in the source; their conditions may differ.

B1: HSPB9: recombinant human small heat shock protein (protein, UniProt Q9BQS6 1-159, looked up)
Heat shock protein beta-9: MQRVGNTFSNESRVASRCPSVGLAERNRVATMPVRLLRDSPAAQEDNDHARDGFQMKLDAHGFAPEELVVQVDGQWLMVTGQQQLDVRDPERVSYRMSQKVHRKMLPSNLSPTAMTCCLTPSGQLWVRGQCVALALPEAQTGPSPRLGSLGSKASNLTR
B2: Hsp20 (protein, UniProt Q9UJY1 1-196, looked up)
Heat shock protein beta-8: MADGQMPFSCHYPSRLRRDPFRDSPLSSRLLDDGFGMDPFPDDLTASWPDWALPRLSSAWPGTLRSGMVPRGPTATARFGVPAEGRTPPPFPGEPWKVCVNVHSFKPEELMVKTKDGYVEVSGKHEEKQQEGGIVSKNFTKKIQLPAEVDPVTVFASLSPEGLLIIEAPQVPPYSTFGESSFNNELPQDSQEVTCT
notes: recombinant human small heat shock protein
B3: Arg120Gly: naturally occurring mutated HSPB5, arginine to glycine at amino acid position 120 (protein, UniProt P02511 1-175, looked up, variant R120G)
Alpha-crystallin B chain: MDIAIHHPWIRRPFFPFHSPSRLFDQFFGEHLLESDLFPTSTSLSPFYLRPPSFLRAPSWFDTGLSEMRLEKDRFSVNLDVKHFSPEELKVKVLGDVIEVHGKHEERQDEHGFISREFHGKYRIPADVDPLTITSSLSSDGVLTVNGPRKQVSGPERTIPITREEKPAVTAAPKK
B4: Hsp22 (protein, UniProt O14558 1-160, looked up)
Heat shock protein beta-6: MEIPVPVQPSWLRRASAPLPGLSAPGRLFDQRFGEGLLEAELAALCPTTLAPYYLRAPSVALPVAQVPTDPGHFSVLLDVKHFSPEEIAVKVVGEHVEVHARHEERPDEHGFVAREFHRRYRLPPGVDPAAVTSALSPEGVLSIQAAPASAQAPPPAAAK
notes: as for B2
B5: myotonic dystrophy protein kinase binding protein, MKBP (protein, UniProt Q16082 1-182, looked up)
Heat shock protein beta-2: MSGRSVPHAHPATAEYEFANPSRLGEQRFGEGLLPEEILTPTLYHGYYVRPRAAPAGEGSRAGASELRLSEGKFQAFLDVSHFTPDEVTVRTVDNLLEVSARHPQRLDRHGFVSREFCRTYVLPADVDPWRVRAALSHDGILNLEAPRGGRHLDTEVNEVYISLLPAPPDPEEEEEAAIVEP
notes: as for B2
B6: HSPB3: recombinant human small heat shock protein (protein, UniProt Q12988 1-150, looked up)
Heat shock protein beta-3: MAKIILRHLIEIPVRYQEEFEARGLEDCRLDHALYALPGPTIVDLRKTRAAQSPPVDSAAETPPREGKSHFQILLDVVQFLPEDIIIQTFEGWLLIKAQHGTRMDEHGFISRSFTRQYKLPDGVEIKDLSAVLCHDGILVVEVKDPVGTK

Tests used:
EAE mice = assay: EAE in 129Sv WT mice immunized with MOG35-55/CFA, clinical scoring; format: in vivo, mouse; details: for therapeutic efficacy of peptide in EAE (clinical scores): peptide every other day from peak of disease (10 μg, or 1 μg equimolar to 10 μg protein); for AREA UNDER THE CURVE (amount higher than HSPB5 normalized to PBS): average EAE scores, peptide every other day from peak of disease, 129Sv WT mice, n=5 per group; for EAE clinical scores over the course of the whole experiment (area under the curve): 10 μg sHSP protein IP every other day from peak of disease; for EAE clinical scores over the course of the whole experiment (area under the curve) / clinical paralysis / EAE clinical scores: vs PBS; for clinical paralysis / EAE clinical scores: 10 μg sHSP protein IP every other day starting at the peak of disease
Protocol: To investigate if the therapeutic efficacy of HSPB5 is a common feature of the whole family of small heat shock proteins, we expressed recombinant HSPB1, HSPB4, and HSPB5. We then treated EAE mice every other day starting at the peak of disease, when clinical paralysis is apparent, with an intraperitoneal (IP) administration of 10 μg of either HSPB1, HSPB4, HSPB5, or PBS as the vehicle control. […] Treating mice in vivo with HSPB1, HSPB4, or HSPB5 led to a reduction in the production of pro-inflammatory cytokines by MOG stimulated splenocytes taken from MOG immunized mice (FIG. 1c). Improvement of the clinical score was dependent on continued dosing of the sHSP. After dosing was stopped, symptoms returned, and paralysis worsened after 96 hours.
Therapeutic Peptides from HSPB5 in EAE. […] We made a series of overlapping, 15-mer peptide fragments of HSPB5 and treated mice at the peak of disease with 10 μg of each peptide every other day, using HSPB5 as a positive control and PBS as a negative control.
EAE induction and scoring. Mice were immunized subcutaneously with 100 μL of myelin oligodendrocyte glycoprotein (MOG) peptide 35-55 (2 mg/mL) and Complete Freund's adjuvant (CFA) (4 mg/mL) on Day 0. […] Mice were randomized at the peak of disease into the treatment groups where they received 10 ug/200 μL of sHSP, 1 μg/200 uL of sHSP peptide, or 200 μL of PBS (vehicle) every other day. Mice were scored every day on a clinical scoring system: 0, healthy mouse; 1, limp tail; 2, weak hindlimbs; 3, complete hindlimb paralysis; 4, weak forelimbs and paralyzed hindlimbs; 5, dead.

[1] = system: pro-inflammatory cytokines of MOG stimulated splenocytes; assay: Peripheral immune cell activation: cytokine production by MOG stimulated splenocytes of treated MOG immunized mice (ELISA); design: species or system mouse; details: mice treated in vivo; splenocytes from MOG immunized mice
Protocol: Peripheral immune cell activation and cytokine analysis. Spleens and lymph nodes were isolated from mice 9 days after immunization with MOG35-55 and CFA. Spleens were mechanically disrupted to isolate single cell splencytes suspension. Cells were cultured in flat bottomed, 96-well plates in media (RPMI 1640 supplemented with […] L-glutamine, 1 mM sodium pyruvate, 0.1 mM non-essential amino acids, 100 U/mL penicillin, 0.1 mg/mL streptomycin, 0.5 uM 2-mercaptoethanol, and 10% fetal calf serum). Cells were stimulated with MOG35-55 (5 ug/mL, 10 ug/mL, and 20 ug/mL). For all activation assays, splenocytes were pooled from three mice per group and triplicate wells were plated. Supernatants of cells were collected at the time of peak production for each cytokine (48 hrs: IL-2, IL-12p40, IL-6; 72 hrs: TNFα and IFNγ; 96 hrs: IL-17; 120 hrs: IL-10). Cytokines were measured in the supernatants using anti-mouse OPTEIA ELISA kits (BD Pharmingen for IFNγ, IL-10, IL-2, IL-6, and IL-12p40; R&D Systems for IL-17 and TNFα).

mice with EAE = assay: EAE in C57BL/6J mice (MOG35-55/CFA, pertussis toxin), neurological impairment scoring; format: in vivo, mouse; details: intraperitoneal 10-50 μg every other day starting at the peak of disease
Protocol: It was tested if the chaperone function of residues 73-92 of HspB5 were capable of reducing the symptoms of experimental allergic encephalomyelist (EAE), by inducing EAE in 9-week old female C57BL/6J by immunized subcutaneously with an emulsion containing 200 μg myelin oligodendrocyte glycoprotein 35-55 (MOG35-55; […] (SEQ ID NO:24)) in saline and an equal volume of complete Freund's adjuvant. Intraperitoneal injection of pertussis toxin at 0 and 48 h post-immunization results in paralysis beginning at day 12.

[2] = system: partially denatured proteins; details: in vitro, literature; cited from earlier work

Molecule	AREA UNDER THE CURVE (amount higher than HSPB5 normalized to PBS) (EAE mice)	clinical paralysis / EAE clinical scores (EAE mice)	further results
DKFVIFLDVKHFSPEDLTVK [HSPB4 73-92]			therapeutic efficacy of peptide in EAE (clinical scores) (EAE mice): therapeutic in EAE; therapeutic efficacy of peptide in EAE (clinical scores) (EAE mice; listed as HSPB4 73-93): as therapeutic as full length proteins; production of pro-inflammatory cytokines by MOG stimulated splenocytes [1]: decrease peripheral immune activation
DRWRVSLDVNHFAPDELTVK [HSPB1 73-92]			therapeutic efficacy of peptide in EAE (clinical scores) (EAE mice): therapeutic in EAE; therapeutic efficacy of peptide in EAE (clinical scores) (EAE mice; listed as HSPB1 73-93): as therapeutic as full length proteins; production of pro-inflammatory cytokines by MOG stimulated splenocytes [1]: decrease peripheral immune activation
EKDRFSVNLDVKHFS (listed as Homo sapiens) [HSPB5 peptide 71-85]	0.06		therapeutic efficacy of peptide in EAE (clinical scores) (EAE mice): marked therapeutic efficacy
HGFISREFHRKYRIP (listed as Homo sapiens) [HSPB5 peptide 111-125]	0.33		
HLLESDLFPTSTSLS (listed as Homo sapiens) [HSPB5 peptide 31-45]	0.33		
HSP27 [HSPB1]		significantly ameliorated clinical paralysis; also recorded: therapeutic	clinical paralysis / clinical scores of mice with EAE (mice with EAE): significant reduction of clinical paralysis; EAE clinical scores over the course of the whole experiment (area under the curve) (EAE mice): significantly improved; production of pro-inflammatory cytokines by MOG stimulated splenocytes [1]: reduction
HSPB7: recombinant human small heat shock protein		ameliorated EAE	
ITREEKPAVTAAPKK (listed as Homo sapiens) [HSPB5 peptide 161-175]	0.08		therapeutic efficacy of peptide in EAE (clinical scores) (EAE mice): therapeutic
LTITSSLSSDGVLTV (listed as Homo sapiens) [HSPB5 peptide 131-145]	0.08		therapeutic efficacy of peptide in EAE (clinical scores) (EAE mice): therapeutic
PPSFLRAPSWFDTGL (listed as Homo sapiens) [HSPB5 peptide 51-65]	0.10		
QVSGPERTIPITREE (listed as Homo sapiens) [HSPB5 peptide 151-165]	0.29		
RRPFFPFHSPSRLFD (listed as Homo sapiens) [HSPB5 peptide 11-25]	−0.11		therapeutic efficacy of peptide in EAE (clinical scores) (EAE mice): therapeutic
SRLFDQFFGEHLLES (listed as Homo sapiens) [HSPB5 peptide 21-35]	0.28		
STSLSPFYLRPPSFL (listed as Homo sapiens) [HSPB5 peptide 41-55]	0.28		
αA-crystallin [HSPB4]		significantly ameliorated clinical paralysis; also recorded: therapeutic	clinical paralysis / clinical scores of mice with EAE (mice with EAE): significant reduction of clinical paralysis; EAE clinical scores over the course of the whole experiment (area under the curve) (EAE mice): significantly improved; production of pro-inflammatory cytokines by MOG stimulated splenocytes [1]: reduction
B1		ameliorated EAE	
B2		ameliorated EAE	
B3		did improve clinical scores; also recorded: ameliorated EAE just as well as HSPB5	molecular chaperone activity [2]: partial loss of molecular chaperone activity; production of pro-inflammatory cytokines by MOG stimulated splenocytes [1]: reduction; also recorded: suppressed
B4		ameliorated EAE	
B5		ameliorated EAE	
B6		ameliorated EAE	
